Patent US8940896B2, “Tetra-cyclic carboline derivatives useful in the inhibition of angiogenesis” (PTC Therapeutics, Inc., priority 2004, dated 2015)

System: VEGF
Assay: Hypoxia-inducible endogenous VEGF expression, VEGF ELISA assay
Type: cell-based
Details: HeLa cells, hypoxic conditions (1% O2, 5% CO2), VEGF in conditioned media
Procedure: The ability of the compounds of the invention to modulate hypoxia-inducible endogenous VEGF expression may be analyzed as follows. VEGF protein levels may be monitored by an ELISA assay (R&D Systems). Briefly, HeLa cells may be cultured for 24-48 hours under hypoxic conditions (1% O2, 5% CO2, balanced with nitrogen) in the presence or absence of a compound of the invention. The conditioned media may then be assayed by ELISA, and the concentration of VEGF calculated from the standard ELISA curve of each assay.
A dose-response analysis may be performed using the ELISA assay and conditions described above. The conditions for the dose-response ELISA are analogous to those described above. A series of, e.g., seven different concentrations may be analyzed. In parallel, a dose-response cytotoxicity assay may be performed using CellTiter Glo (Promega) under the same conditions as the ELISA to ensure that the inhibition of VEGF expression was not due to the cytotoxicity. Dose-response curves may be plotted using percentage inhibition versus concentration of the compound, and EC50 and CC50 values may be generated for each compound with the maximal inhibition set as 100% and the minimal inhibition as 0%.

SMILES | EC50 (Homo sapiens, HeLa) | EC50
O=C1C2Cc3c([nH]c4ccccc34)C(c3cccc(Cl)c3)N2C(=S)N1C1CCCCC1 (stereo not shown) [Compound 36] | > 1000 nM | –
COc1ccc(C2c3[nH]c4ccc(Br)cc4c3CC3C(=O)N(Cc4ccco4)C(=S)N32)cc1 (stereo not shown) [Compound 180] | < 8 nM | –
O=C1C2Cc3c([nH]c4ccc(Br)cc34)C(c3ccc(OCCCn4ccnc4)cc3)N2C(=S)N1c1ccc(Cl)cc1 (stereo not shown) [Compound 199] | < 8 nM | –
COCCOc1ccc(C2c3[nH]c4ccc(Br)cc4c3CC3C(=O)N(C4CCCCC4)C(=S)N32)cc1 (stereo not shown) [Compound 111] | < 8 nM | –
COCCOc1ccc(C2c3[nH]c4ccc(Cl)cc4c3CC3C(=O)N(C(C)C)C(=S)N32)cc1 (stereo not shown) [Compound 108] | 8 to 40 nM | –
CC(C)N1C(=O)C2Cc3c([nH]c4ccc(Cl)cc34)C(c3ccc(-c4cncnc4)cc3)N2C1=O (stereo not shown) [Compound 126] | 200 to 1000 nM | –
O=C1C2Cc3c([nH]c4ccccc34)C(C3CCCCC3)N2C(=S)N1C1CCCCC1 (stereo not shown) [Compound 1] | – | > 1000 nM
CC(C)N1C(=O)C2Cc3c([nH]c4ccc(Br)cc34)C(c3ccc(-c4cncnc4)cc3)N2C1=O (stereo not shown) [Compound 121] | 40 to 200 nM | –
O=C1C2Cc3c([nH]c4ccccc34)C(c3ccccc3)N2C(=O)N1C1CCCCC1 (stereo not shown) [Compound 72] | > 1000 nM | –
COCCCN1C(=O)C2Cc3c([nH]c4ccc(Cl)cc34)C(c3ccc(OCCOC)cc3)N2C1=S (stereo not shown) [Compound 110] | 8 to 40 nM | –
CC(C)N1C(=O)C2Cc3c([nH]c4ccc(Cl)cc34)C(c3ccc(-n4ccnc4)cc3)N2C1=O (stereo not shown) [Compound 123] | 200 to 1000 nM | –
CC(C)N1C(=O)C2Cc3c([nH]c4ccc(Cl)cc34)C(c3ccc(-c4ccncc4)cc3)N2C1=O (stereo not shown) [Compound 125] | 200 to 1000 nM | –
CC(C)N1C(=O)C2Cc3c([nH]c4ccc(Cl)cc34)C(c3ccc(N4CCOCC4)cc3)N2C1=O (stereo not shown) [Compound 122] | 200 to 1000 nM | –
CC(C)N1C(=O)C2Cc3c([nH]c4ccc(Br)cc34)C(c3ccc(OCCN4CCOCC4)cc3)N2C1=S (stereo not shown) [Compound 103] | < 8 nM | –
CCN1C(=O)C2Cc3c([nH]c4ccc(C)cc34)C(c3ccc(OC)cc3)N2C1=O (stereo not shown) [Compound 33] | 40 to 200 nM | –
COc1cccc(C2c3[nH]c4ccc(Br)cc4c3CC3C(=O)N(C4CCCC4)C(=S)N32)c1 (stereo not shown) [Compound 20] | < 8 nM | –
CC(C)N1C(=O)C2Cc3c([nH]c4ccc(Cl)cc34)C(c3ccc(N4CCN(C)CC4)cc3)N2C1=S (stereo not shown) [Compound 133] | 40 to 200 nM | –
O=C1C2Cc3c([nH]c4ccc(Br)cc34)C(c3ccc(OCCN4CCCCC4)cc3)N2C(=S)N1C1CCCCC1 (stereo not shown) [Compound 26] | 40 to 200 nM | –
COc1ccc(C2c3[nH]c4ccc(Br)cc4c3CC3C(=O)N(C4CCCCC4)C(=S)N32)cc1 (stereo not shown) [Compound 186] | – | < 8 nM
O=C1C2Cc3c([nH]c4ccc(Br)cc34)C(c3ccc(OCCCN4CCOCC4)cc3)N2C(=S)N1c1ccc(Cl)cc1 (stereo not shown) [Compound 192] | < 8 nM | –
Cc1ccc2[nH]c3c(c2c1)CC1C(=O)N(C2CCCCC2)C(=O)N1C3c1ccc2c(c1)OCO2 (stereo not shown) [Compound 44] | 200 to 1000 nM | –
COc1ccc(C2c3[nH]c4ccc(OC)cc4c3CC3C(=O)N(C4CCCCC4)C(=O)N32)cc1 (stereo not shown) [Compound 24] | 40 to 200 nM | –
O=C1C2Cc3c([nH]c4ccc(Br)cc34)C(c3ccc(OCCCN4CCSCC4)cc3)N2C(=S)N1c1ccc(Cl)cc1 (stereo not shown) [Compound 196] | < 8 nM | –
O=C1C2Cc3c([nH]c4ccc(Br)cc34)C(c3ccc(OCCCn4ccnn4)cc3)N2C(=S)N1c1ccc(Cl)cc1 (stereo not shown) [Compound 149] | < 8 nM | –
CC(C)N1C(=O)C2Cc3c([nH]c4ccc(Br)cc34)C(c3ccc(OCCCn4ccnc4)cc3)N2C1=S (stereo not shown) [Compound 160] | 8 to 40 nM | –
COc1ccc(C2c3[nH]c4ccccc4c3CC3C(=O)N(C4CCCCC4)C(=O)N32)cc1 (stereo not shown) [Compound 54] | – | > 1000 nM
CCCCCN1C(=O)C2Cc3c([nH]c4ccc(Br)cc34)C(c3ccc(C(C)C)cc3)N2C1=S (stereo not shown) [Compound 98] | < 8 nM | –
O=C1C2Cc3c([nH]c4ccc(Br)cc34)C(c3ccc(OCCCN4CCCC4)cc3)N2C(=S)N1c1ccc(Cl)cc1 (stereo not shown) [Compound 189] | 8 to 40 nM | –
O=C1C2Cc3c([nH]c4ccc(Br)cc34)C(c3ccc4c(c3)OCO4)N2C(=S)N1C1CCCCC1 (stereo not shown) [Compound 9] | – | 8 to 40 nM
CC(C)N1C(=O)C2Cc3c([nH]c4ccc(Br)cc34)C(c3ccc(-n4ccnc4)cc3)N2C1=S (stereo not shown) [Compound 128] | 8 to 40 nM | –

Other lines, results leading:

EC50 (Homo sapiens, HeLa) | EC50 | SMILES
> 1000 nM | – | C=CCN1C(=O)C2Cc3c([nH]c4ccccc34)C(c3cccc(Cl)c3)N2C1=S (stereo not shown) [Compound 67]
> 1000 nM | – | COc1ccccc1C1c2[nH]c3ccccc3c2CC2C(=O)N(c3ccccc3C)C(=S)N21 (stereo not shown) [Compound 89]
> 1000 nM | – | COc1cc(C2c3[nH]c4ccccc4c3CC3C(=O)N(C)C(=S)N32)cc(OC)c1O (stereo not shown) [Compound 71]
< 8 nM | – | COc1ccc(C2c3[nH]c4ccc(Br)cc4c3CC3C(=O)N(c4cccc(OC(C)=O)c4)C(=S)N32)cc1 (stereo not shown) [Compound 182]
> 1000 nM | – | COc1ccc(C2c3[nH]c4ccccc4c3CC3C(=O)N(c4ccc(C)cc4)C(=S)N32)cc1 (stereo not shown) [Compound 46]
< 8 nM | – | COc1ccc(C2c3[nH]c4ccc(Br)cc4c3CC3C(=O)N(c4cccc(F)c4)C(=S)N32)cc1 (stereo not shown) [Compound 167]
40 to 200 nM | – | COc1ccc(C2c3[nH]c4ccc(Br)cc4c3CC3C(=O)N(c4ccc(OC)cc4C)C(=S)N32)cc1 (stereo not shown) [Compound 177]
< 8 nM | – | COc1ccc(C2c3[nH]c4ccc(Br)cc4c3CC3C(=O)N(c4ccc(OC(C)=O)cc4)C(=S)N32)cc1 (stereo not shown) [Compound 141]
8 to 40 nM | – | COc1ccc(C2c3[nH]c4ccc(Br)cc4c3CC3C(=O)N(c4ccc(C(=O)O)cc4)C(=S)N32)cc1 (stereo not shown) [Compound 200]
40 to 200 nM | – | COc1ccc(C2c3[nH]c4ccc(Br)cc4c3CC3C(=O)N(C(=O)c4ccccc4)C(=S)N32)cc1 (stereo not shown) [Compound 178]
> 1000 nM | – | COc1ccc(C2c3[nH]c4ccccc4c3CC3C(=O)N(CCc4ccccc4)C(=S)N32)cc1 (stereo not shown) [Compound 79]
> 1000 nM | – | COc1cccc(C2c3[nH]c4ccccc4c3CC3C(=O)N(C4CCCC4)C(=S)N32)c1 (stereo not shown) [Compound 12]
< 8 nM | – | COc1ccc(C2c3[nH]c4ccc(Br)cc4c3CC3C(=O)N(c4ccc(Cl)cc4)C(=S)N32)cc1 (stereo not shown) [Compound 138]
200 to 1000 nM | – | COc1ccc(C2c3[nH]c4ccccc4c3CC3C(=O)N(c4cccc(F)c4)C(=S)N32)cc1 (stereo not shown) [Compound 43]
200 to 1000 nM | – | COc1ccc(C2c3[nH]c4ccccc4c3CC3C(=O)N(C4CCCCC4)C(=S)N32)cc1 (stereo not shown) [Compound 40]
> 1000 nM | – | COCCCN1C(=O)C2Cc3c([nH]c4ccccc34)C(c3ccc(OC)cc3)N2C1=S (stereo not shown) [Compound 62]
> 1000 nM | – | COCCN1C(=O)C2Cc3c([nH]c4ccccc34)C(c3ccc(OC)cc3)N2C1=S (stereo not shown) [Compound 59]
> 1000 nM | – | O=C1C2Cc3c([nH]c4ccccc34)C(c3ccc(F)cc3)N2C(=S)N1C1CCCCC1 (stereo not shown) [Compound 4]
> 1000 nM | – | C=CCN1C(=O)C2Cc3c([nH]c4ccccc34)C(c3ccc(O)cc3)N2C1=S (stereo not shown) [Compound 77]
< 8 nM | – | COc1ccc(C2c3[nH]c4ccc(Br)cc4c3CC3C(=O)N(c4ccc(C(F)(F)F)cc4)C(=S)N32)cc1 (stereo not shown) [Compound 163]
> 1000 nM | – | COc1ccc(C2c3[nH]c4ccccc4c3CC3C(=O)N(c4ccc(OC)cc4C)C(=S)N32)cc1 (stereo not shown) [Compound 78]
> 1000 nM | – | COc1ccccc1C1c2[nH]c3ccccc3c2CC2C(=O)N(Cc3ccccc3)C(=S)N21 (stereo not shown) [Compound 93]
